Experimental data reported in patent US3959468A, “Antibiotic equisetin and method of production” (The United States of America as represented by the …, priority 1974, dated 1976).
Values after ≈ are worked out from the molar mass of the structure shown. Where two headings read alike, the source gives them in different places.

Columns and labels:
[1] = test system: M. smegmatis; assay: Minimum inhibitory concentration, agar streak test on TGY agar (M. smegmatis); type: cell-based; conditions: Mycolicibacterium smegmatis, NRRLB612, NRRL B-612, 37° C., 24 and 48 hr., read-out: Antimicrobial agent MIC
Procedure: (§1) Minimum inhibitory concentrations for microorganisms. The F. equiseti NRRL 5537 antibiotic was diluted in ethanol. Streptomycin sulfate and isoniazid were diluted in water. Amounts up to 1 ml. were added to TGY agar to provide the desired double dilution test concentrations. Minimum inhibitory concentrations of the antimicrobial agents were determined by streaking a loopful of standardized suspensions of 24- to 48-hr. cultures of selected microorganisms onto the surface of 20 ml. of the modified TGY agar in a standard petri dish. Microorganisms were cultured on TGY agar slants and diluted with TGY broth to yield a transmittance of about 90% at 600 nm. in a Spectronic-20 spectrophotometer. All cultures grew on control plates containing 1 ml. ethanol per 100 ml. TGY agar. Bacteria were incubated at 37° C. and the fungi at room temperature.

[2] = test system: M. rhodochrus; assay: Minimum inhibitory concentration, agar streak test on TGY agar (M. rhodochrus); type: cell-based; conditions: NRRL B-2141, 37° C., 24 and 48 hr., read-out: Antimicrobial agent MIC
Procedure: as §1

[3] = test system: Staphylococcus aureus; assay: Minimum inhibitory concentration, agar streak test on TGY agar (S. aureus); type: cell-based
Procedure: as §1

[4] = test system: fungi; assay: Minimum inhibitory concentration, agar streak test on TGY agar (fungi); type: cell-based; conditions: tested fungi; room temperature; read-out: no inhibition at levels up to
Procedure: as §1

[5] = test system: gram-negative bacteria; assay: Minimum inhibitory concentration, agar streak test on TGY agar (other gram-negative bacteria); type: cell-based; conditions: Neisseria perflava; tested gram-negative bacteria other than N. perflava; read-out: no inhibition at levels up to
Procedure: as §1

[6] = test system: Neisseria perflava; assay: Minimum inhibitory concentration, agar streak test on TGY agar (N. perflava); type: cell-based; conditions: 37° C., 24 and 48 hr., read-out: Antimicrobial agent MIC
Procedure: as §1

[7] = physchem; type: physicochemical
Procedure: Melting points (uncorrected) were determined with a Fisher-Johns apparatus. Infrared spectra were obtained on a Beckman Model 1R-8 spectrophotometer from films deposited on KRS-5 plates (Wilks, Inc.) or from solutions in a 1-mm. sodium chloride cell. Mass spectra were obtained on a Nuclide high-resolution instrument Model 12-90G. Ultraviolet spectra were recorded from a Beckman DG-G with the absolute ethanol solutions of antibiotic at 25 μg./ml. Elemental analysis was carried out in a Perkin-Elmer CHN analyzer 240. Solubilities were measured by the procedure of Shriner et al. [The Systematic Identification of Organic Compounds. A Laboratory Manual, John Wiley and Sons., Inc., New York].

[8] = test system: Bacillus subtilis; assay: Minimum inhibitory concentration, agar streak test on TGY agar (B. subtilis); type: cell-based
Procedure: as §1

[9] = in vivo; set-up: species or system Swiss-Webster female mice; conditions: mouse, in vivo, ip; intraperitoneal, propylene glycol, 25 g. Swiss-Webster female mice; read-out: intraperitoneal LD50 dose
Procedure: (§2) Animal toxicity. Chromatographically pure antibiotic was dissolved in warm propylene glycol and injected intraperitoneally into 25 g. Swiss-Webster female mice. The LD50 dose was calculated by Weil's procedure (supra) with the following notation: K = 3; n = 6; r = 0, 1, 6, 6; d = 0.3010; and Da = 25 mg./kg. body weight.

[10] = test system: mice; assay: in vivo; set-up: species or system Swiss-Webster female mice; conditions: for r (Weil's procedure notation): n = 6, Da = 25 mg./kg.
Procedure: as §2

[11] = test system: some gram-positive bacteria and N. perflava; assay: Comparison of MIC of equisetin with streptomycin and isoniazid; type: cell-based; conditions: in vitro, tested bacteria
Procedure: as §1

[12] = type: physicochemical; conditions: for degradation peak, share of the sample: short columns (2 ft.)
Procedure: Gas-liquid chromatography of F. equiseti NRRL 5537 preparations was carried out on a Bendix Model 2500 chromatograph equipped with on-column flame ionization detectors. Retention times of the antibiotic and its degradation product were determined on glass columns (2 ft. × 2 mm. and 6 ft. × 2 mm.) packed with SE-30 (3%) on Supelcon AW-DMCS (Supelco, Inc.). Operating parameters were: temperature, 180° or 190° C. isothermally for 2-ft. columns and programmed from 180° to 220° C. at 5° C./min. for 6-ft. columns; carrier gas, nitrogen (40 ml./min.); hydrogen (20 ml./min.); air (400 ml./min.); injection ports and detectors, 250° C. Samples were dissolved in absolute ethanol (10 mg./ml.), and 2 μl. were used for analyses. Peak areas and retention times were obtained with a Hewlett/Packard Model 3370 B integrator.

[13] = test system: Mycobacterium phlei; assay: Minimum inhibitory concentration, agar streak test on TGY agar (M. phlei); type: cell-based; conditions: Mycolicibacterium phlei
Procedure: as §1

[14] = test system: bacteria; conditions: cited from earlier work
[15] = seven strains, read-out: concentration at which strains were inhibited
[16] = 100 or 200 mg./kg. intraperitoneal

## CC=CC1C=CC2CC(C)CCC2C1(C)C(O)=C1C(=O)C(CO)N(C)C1=O (centres unmarked) [equisetin]
[1]
  MIC: 8 µg/mL (≈ 0.0214 mM)
[2]
  MIC: 0.5 µg/mL (≈ 0.00134 mM)
[3]; NRRLB120, NRRL B-120, TGY agar, 37° C., 24 and 48 hr., read-out: Antimicrobial agent MIC
  MIC: 1 µg/mL (≈ 0.00268 mM)
[3]; NRRLB124, NRRL B-124, TGY agar, 37° C., 24 and 48 hr., read-out: Antimicrobial agent MIC
  MIC: 1 µg/mL (≈ 0.00268 mM)
[3]; NRRLB313, NRRL B-313, TGY agar, 37° C., 24 and 48 hr., read-out: Antimicrobial agent MIC
  MIC: 0.5 µg/mL (≈ 0.00134 mM)
[3]; NRRLB678, NRRL B-678, TGY agar, 37° C., 24 and 48 hr., read-out: Antimicrobial agent MIC
  MIC: 1 µg/mL (≈ 0.00268 mM)
[3]; NRRLB1317, NRRL B-1317, TGY agar, 37° C., 24 and 48 hr., read-out: Antimicrobial agent MIC
  MIC: 1 µg/mL (≈ 0.00268 mM)
[3]; NRRLB1318, NRRL B-1318, TGY agar, 37° C., 24 and 48 hr., read-out: Antimicrobial agent MIC
  MIC: 1 µg/mL (≈ 0.00268 mM)
[3]; NRRLB2746, NRRL B-2746, TGY agar, 37° C., 24 and 48 hr., read-out: Antimicrobial agent MIC
  MIC: 1 µg/mL (≈ 0.00268 mM)
[3]; [15]
  MIC: ≤ 1 µg/mL
[4]
  MIC: > 128 µg/mL
[5]
  MIC: > 128 µg/mL
[6]; NRRLB1458, NRRL B-1458, TGY agar
  MIC: 2 µg/mL (≈ 0.00535 mM)
[6]; NRRLB1788, NRRL B-1788, TGY agar
  MIC: 2 µg/mL (≈ 0.00535 mM)
[6]; NRRLB1789, NRRL B-1789, TGY agar
  MIC: 4 µg/mL (≈ 0.0107 mM)
[6]; NRRLB1790, NRRL B-1790, TGY agar
  MIC: 1 µg/mL (≈ 0.00268 mM)
[6]; NRRLB1791, NRRL B-1791, TGY agar
  MIC: 4 µg/mL (≈ 0.0107 mM)
[7]; acetone, organic solvent or mixture, read-out: solubility in acetone
  solubility: > 660 mg/mL
[7]; ethanol, organic solvent or mixture, read-out: solubility in ethanol
  solubility: > 330 mg/mL
[7]; methanol, organic solvent or mixture, read-out: solubility in methanol
  solubility: > 220 mg/mL
[7]; organic solvent or mixture, hexane, insoluble, read-out: solubility in hexane
  solubility: < 0.8 mg/mL
[7]; water, insoluble, read-out: solubility in water
  solubility: < 0.3 mg/mL
[8]; NRRLB543, NRRL B-543, TGY agar, 37° C., 24 and 48 hr., read-out: Antimicrobial agent MIC
  MIC: 0.5 µg/mL (≈ 0.00134 mM)
[8]; NRRLB558, NRRL B-558, TGY agar, 37° C., 24 and 48 hr., read-out: Antimicrobial agent MIC
  MIC: 0.5 µg/mL (≈ 0.00134 mM)
[8]; NRRLB644, NRRL B-644, TGY agar, 37° C., 24 and 48 hr., read-out: Antimicrobial agent MIC
  MIC: 0.5 µg/mL (≈ 0.00134 mM)
[8]; NRRLB765, NRRL B-765, TGY agar, 37° C., 24 and 48 hr., read-out: Antimicrobial agent MIC
  MIC: 0.5 µg/mL (≈ 0.00134 mM)
[8]; NRRLB972, NRRL B-972, TGY agar, 37° C., 24 and 48 hr., read-out: Antimicrobial agent MIC
  MIC: 0.5 µg/mL (≈ 0.00134 mM)
[8]; NRRLB1650, NRRL B-1650, TGY agar, 37° C., 24 and 48 hr., read-out: Antimicrobial agent MIC
  MIC: 1 µg/mL (≈ 0.00268 mM)
[8]; NRRLB3284, NRRL B-3284, TGY agar, 37° C., 24 and 48 hr., read-out: Antimicrobial agent MIC
  MIC: 1 µg/mL (≈ 0.00268 mM)
[8]; [15]
  MIC: ≤ 1 µg/mL
[9]
  LD50: 63 mg/kg
[10]; 25- or 50-mg./kg. doses intraperitoneal, 4 wk. of observation
  visible ill effects in surviving mice: no visible ill effects
[10]; [16]
  condition of mice: lethargic
  mortalities continued for, post-injection: 4 da.
  time of death: death did not occur before the second day after treatment
[10]; first r, d = 0.3010 (25 mg./kg.)
  r (Weil's procedure notation): 0
[10]; fourth r, d = 0.3010 (200 mg./kg.)
  r (Weil's procedure notation): 6
[10]; intraperitoneal, mice
  lethal action: Lethal action was slow
[10]; second r, d = 0.3010 (50 mg./kg.)
  r (Weil's procedure notation): 1
[10]; third r, d = 0.3010 (100 mg./kg.)
  r (Weil's procedure notation): 6
[11]
  comparison of minimum inhibitory concentrations with streptomycin and isoniazid: a lower concentration of equisetin were required for the in vitro inhibition of the tested bacteria than was required for inhibition by streptomycin or isoniazid
[12]; 6-ft. columns, 220° C.
  antibiotic converted to the degradation product: almost half
[12]; 180° C.
  degradation peak, share of the sample: 3%
[12]; 190° C.
  degradation peak, share of the sample: 6-8%
[13]; NRRLB609, NRRL B-609, TGY agar, 37° C., 24 and 48 hr., read-out: Antimicrobial agent MIC
  MIC: 1 µg/mL (≈ 0.00268 mM)
[13]; NRRLB610, NRRL B-610, TGY agar, 37° C., 24 and 48 hr., read-out: Antimicrobial agent MIC
  MIC: 1 µg/mL (≈ 0.00268 mM)
[13]; NRRLB4051, NRRL B-4051, TGY agar, 37° C., 24 and 48 hr., read-out: Antimicrobial agent MIC
  MIC: 2 µg/mL (≈ 0.00535 mM)
[13]; two of three strains, read-out: concentration at which strains were inhibited
  MIC: ≤ 1 µg/mL

## C[C@H]1CCCC(=O)CCC/C=C/c2cc(O)cc(O)c2C(=O)O1 [zearalenone]
[14]
  antibacterial properties: either lack or only exhibit weak antibacterial properties

## fusariogenin
[14]
  antibacterial properties: either lack or only exhibit weak antibacterial properties
